Reference: US4937232A, “Inhibition of protein kinase C by long-chain bases” (priority 1988, dated 1990)
Where two headings read alike, the source gives them in different places.

Key:
HL-60 cells [1] = assay: HL-60 cell growth and viability; type: cell-based, human
Method: (§1) The HL-60 cells (obtained from the American Type Culture Collection, ATCC CCL240) were grown at 37° as a suspension culture in 175 cm^2 Nunc tissue culture flasks (Vangard International, Neptune, N.J.). The cells were subcultured at a density of 0.25×10^6 cells/ml and used between passage numbers 30 and 40.
(§2) Cells were centrifuged at 600 g for 3 min, and added at 1×10^5 cells per well in 12-well culture dishes. Medium, PMA, and long-chain bases (prepared as the 1:1 molar complex with fatty acid-free bovine serum albumin) at the indicated concentrations were added for a total volume of 2.0 ml. After the desired times, the cells in suspension were counted and checked for viability (trypan blue exclusion) with a hemacytometer. The attached cells were quantitated by measuring DNA content according to the method of West et al (Anal. Biochem., 147, 289-295, 1985) and by assaying for acid phosphatase according to the method of Schnyder (J. Exp. Med., 148, 434-445, 1978).

[2] = HL-60 cell growth and viability; type: cell-based, human; settings: human, hl-60 cells, 24 h; for viability at 24 h, 2.5 µM: 2.5 μM sphinganine; for viability at 24 h, 5 µM: 5 μM sphinganine
Method: as §1, §2

HL-60 cells [3] = assay: [3-3H]sphinganine uptake and metabolism by HL-60 cells; type: in vitro ADME, human
Method: Approximately 1×10^6 HL-60 cells in 1 ml of medium were mixed with an equal volume of medium containing 2.5 μm [3-^3 H]sphinganine (equimolar with BSA). After varying time intervals, an aliquot of the cells was removed and counted and a portion was extracted as described below. The extracts were applied to Silica gel H plates and developed in CHCl3 :methanol: 2N NH4 OH (40:10:1, v/v/v), air dried, sprayed with Amplify (Amersham), and subjected to fluorography.

protein kinase C = assay: Phorbol-dibutyrate binding to protein kinase C, mixed micellar assay (Table VI); settings: Triton X-100 mixed micelles, 20 mol % phosphatidylserine
Method: TABLE VI: Inhibition of protein kinase C activity and phorbol-dibutyrate binding by lysosphingolipids. […] The remaining two columns show the observed effects of the lysosphingolipids of protein kinase C activity and phorbol diester binding in vitro and in human platelets. Lysogangliosides were prepared from their parental gangliosides by hydrolysis in methanolic KOH esentially as described by Neuenhofer et al. in Bioch. 24, 525, 1985. During this preparation, with approximately 90-95% conversion, the N-acetate of N-acetylneuraminic acid is partially hydrolyzed. Fatty acids were partitioned into heptane after acidification of the methanolic reaction mixture. Galactosylsphingosine, glucosylsphingosine, and lactosylsphingosine were prepared as previously described for galactosylsphingosine (Radin, Lipids 9, 358, 1974) Sphingosylphosphorylcholine was prepared by hydrolysis in HCl-butanol (Kaller, Biochemische Zeitschrift 334, 451, 1961). The purity of the lyso derivatives (greater than 90%) was checked by thin layer chromatography (TLC) on silica gel H plates developed in chloroform/methanol/2N NH4 OH (65/35/9) and visualized by ninhydrin reaction for N-lyso compounds, by α-naphthol/sulfuric acid for both gangliosides and lysogangliosides,and by a phospholipid spray for sphingosylphosphorylcholine. Lysosphingolipids were quantitated by reaction of the amine group with trinitrobenzenesulfonate. Gangliosides and lysosphingolipids were also quantitated by reaction with anthrone. The lysosphingolipids were then studied for their effect on protein kinase C activity. Protein kinase C was purified to near homogeneity by the method of Wolf et al. (J. Biol. Chem. 260, 15718, 1985), and activity was measured using a mixed micellar assay (described herein). Lysosphingolipids were added directly in aqueous solution, and allowed to equilibrate with the Triton X-100 (0.3% w/v) mixed micelles containing 6 mol % phosphatidylserine and 2 mol % dioleoylglycerol. […] Phorbol-dibutyrate binding was measured in a mixed micellar assay. Lysosphingolipids inhibited phorbol-dibutyrate binding to protein kinase C in the presence of Triton X-100 mixed micelles containing 20 mol % phosphatidylserine. […] The difference is related to the higher concentration of phosphatidylserine used in the binding assay, as both activity and binding show a high cooperative dependence on phosphatidylserine, which modulates the inhibition by lysosphingolipids. Phorbol-dibutyrate binding to human platelets and 40 kDa phosphorylation in platelets were carried out as described above. Lysosphingolipids inhibited phorbol dibutyrate binding to human platelets at concentrations in the 10-50 μM range. Inhibition of 40 kDa phosphorylation occurred over the same concentration range.

[4] = 8 nM PMA, read-out: Percent viability of suspended cells
[5] = No PMA, read-out: Percent viability of suspended cells

Row | time in which approximately half of the sphinganine was taken up from the medium by the cells (HL-60 cells [3]; [3H]sphinganine, HL-60 cells, 37°) | free [3H]sphinganine associated with the cells (HL-60 cells [3]; day 2) | free [3H]sphinganine associated with the cells (HL-60 cells [3]; day 3) | Compound | HL-60 cell growth (doubling) (HL-60 cells [1]; 1 μM sphinganine, first 24 h) | HL-60 cytotoxicity (HL-60 cells [1]; 5 μM sphinganine, second day) | HL-60 cell growth (HL-60 cells [1]; 1 and 2.5 μM sphinganine, second day) | HL-60 cell growth (HL-60 cells [1]; 2.5 and 5 μM sphinganine, first 24 h) | viability at 24 h, 1 µM ([2]; 8 nM PMA + 1 μM sphinganine, read-out: % Viability) | viability at 24 h, 1 µM ([2]; 8 nM PMA, 1 μM sphinganine, read-out: Percent viability of suspended cells) | viability at 24 h, 2.5 µM [2, 4] | viability at 24 h, 5 µM [2, 4] | viability at 24 h, 1 µM ([2]; 1 μM sphinganine, no PMA, read-out: % Viability) | viability at 24 h, 1 µM ([2]; No PMA, 1 μM sphinganine, read-out: Percent viability of suspended cells) | viability at 24 h, 2.5 µM [2, 5] | viability at 24 h, 5 µM [2, 5] | Inhibition of [3H]PDBu Binding to Protein Kinase, (mol %) (protein kinase C) | IC50 (protein kinase C; read-out: Inhibition of [3H]PDBu Binding to Protein Kinase)
1 | ≤ 6 h | 0.07 nmol | 0.06 nmol | CCCCCCCCCCCCCCC[C@@H](O)[C@@H](N)CO (relative stereo) [Sphinganine, erythro-dihydrosphingosine] | not changed | significant cell death | inhibited growth without cytotoxicity | limited growth | 93% | 87% | 94% | 80% | 95% | 90% | 98% | 87% |  | 
2 |  |  |  | CCCCCCCCCCCCC/C=C/[C@@H](O)[C@@H](N)CO [sphingosine] |  |  |  |  |  |  |  |  |  |  |  |  | 9.3 mol % | 400 µM
